Target: CoaX (Rv3600c) (Mycobacterium tuberculosis, UniProt P9WPA1)
Sequence (P9WPA1 whole entry, looked up): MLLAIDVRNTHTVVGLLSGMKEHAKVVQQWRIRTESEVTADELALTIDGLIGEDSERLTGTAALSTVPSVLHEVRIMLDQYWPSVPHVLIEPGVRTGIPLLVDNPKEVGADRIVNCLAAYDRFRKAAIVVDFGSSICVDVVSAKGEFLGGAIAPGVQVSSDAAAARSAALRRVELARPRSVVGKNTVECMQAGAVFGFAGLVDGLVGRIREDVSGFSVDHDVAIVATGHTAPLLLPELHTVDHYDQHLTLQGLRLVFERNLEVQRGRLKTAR

| Compound | thermal shift |
| --- | --- |
| CC(C)(CO)[C@@H](O)C(=O)NCCC(=O)O [pantothenate] | Increasing pantothenate concentration had a subtle effect on CoaX thermostability |
| Nc1ncnc2c1ncn2[C@@H]1O[C@H](COP(=O)(O)OP(=O)(O)OP(O)(O)=S)[C@@H](O)[C@H]1O [ATPγS] | increasing concentrations of ATPγS in the presence of pantothenate had the largest effect |

Source: paper PMC11626117 (Proceedings of the National Academy of Sciences of the …, 2024)
